Measurements from patent publication US7858621B2 (Amorepacific Corporation, priority 2006, dated 2010).
Where a name gives a salt, the structure may show the parent alone.

Target: T1, vanilloid receptor (Rattus norvegicus, UniProt O35433)
T1 construct: DRG nerve cells from the primary culture of 2 days were equilibrated; endogenous in cells; host or cells: primary culture of dorsal root ganglion neurons from neonatal SD rats
Assay: 45Ca influx test in cultured neonatal rat DRG neurons, inhibition of capsaicin response
Type: cell-based
Conditions: neonatal rat DRG neurons, capsaicin 0.5 μM, 45Ca influx; read-out: Antagonist Calcium Uptake Test (IC50)
How it was run: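 Neonatal SD rat DRG neurons, cultured 2 days with NGF (200 ng/ml) and Ara-C, were washed in HEPES (10 mM, pH 7.4)-buffered Ca/Mg-free HBSS. Test compound was added with capsaicin (final 0.5 μM) and 45Ca (10 μCi/ml) for 10 min at room temperature; 45Ca uptake counted by scintillation after SDS elution.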

T1 sequence (O35433 whole entry): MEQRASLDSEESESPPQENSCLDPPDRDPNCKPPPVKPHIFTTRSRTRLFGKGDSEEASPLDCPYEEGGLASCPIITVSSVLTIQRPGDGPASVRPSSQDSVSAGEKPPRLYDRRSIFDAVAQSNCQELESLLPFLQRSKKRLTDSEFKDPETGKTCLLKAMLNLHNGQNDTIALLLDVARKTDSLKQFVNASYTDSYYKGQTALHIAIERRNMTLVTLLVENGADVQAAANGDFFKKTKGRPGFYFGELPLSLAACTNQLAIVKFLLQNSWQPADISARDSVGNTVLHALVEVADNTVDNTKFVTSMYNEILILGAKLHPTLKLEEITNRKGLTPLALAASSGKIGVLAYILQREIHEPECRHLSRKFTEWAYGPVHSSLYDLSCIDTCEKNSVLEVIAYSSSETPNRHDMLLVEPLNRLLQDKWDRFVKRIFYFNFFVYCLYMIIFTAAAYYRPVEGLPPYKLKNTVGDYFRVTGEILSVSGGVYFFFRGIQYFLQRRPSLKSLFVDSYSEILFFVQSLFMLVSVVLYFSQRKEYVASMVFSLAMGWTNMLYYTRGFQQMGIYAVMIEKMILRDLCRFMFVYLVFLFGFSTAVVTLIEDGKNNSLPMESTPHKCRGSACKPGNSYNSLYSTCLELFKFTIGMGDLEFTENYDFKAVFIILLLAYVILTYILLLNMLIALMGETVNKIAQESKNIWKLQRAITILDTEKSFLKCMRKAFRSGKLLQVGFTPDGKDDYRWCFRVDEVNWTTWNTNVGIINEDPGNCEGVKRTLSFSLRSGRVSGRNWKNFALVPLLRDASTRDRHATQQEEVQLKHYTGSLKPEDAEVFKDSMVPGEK

With `CC(C)Oc1nc(C(F)(F)F)ccc1/C=C/C(=O)NCc1cc(F)c(NS(C)(=O)=O)c(C#N)c1` [Example 109, N-(3-Cyano-5-fluoro-4-methanesulfonylamino-benzyl)-3-(2-isopropoxy-6-trifluoromethyl-pyridin-3-yl)-acrylamide] as the compound, how does the IC50 read?
The IC50 was 150 nM.

For `C#Cc1cc(CNC(=O)/C=C/c2ccc(C(F)(F)F)nc2N2CCC(C(=O)OCC)CC2)cc(F)c1NS(C)(=O)=O` [Example 110, AT-(3-Ethynyl-5-fluoro-4-methansulfonylamino-benzyl)-3-[2-(4-ethoxycarbonyl-piperid-1-yl)-6-trifluoromethyl-pyridin-3-yl]-acrylamide], which IC50 is on record?
Its IC50 is 580 nM.

Which IC50 does the source give for `CCOC(=O)C1CCN(c2nc(C(F)(F)F)ccc2/C=C/C(=O)NCc2cc(F)c(NS(C)(=O)=O)c(C#N)c2)CC1` [Example 111, N-(3-Cyano-5-fluoro-4-methansulfonylamino-benzyl)-3-[2-(4-ethoxycarbonyl-piperid-1-yl)-6-trifluoromethyl-pyridin-3-yl]-acrylamide] here?
Its IC50 is 820 nM.

With `CS(=O)(=O)Nc1ccc(CNC(=O)/C=C/c2ccc(C(F)(F)F)nc2OCc2ccccc2)cc1F` [Example 112, 3-(2-Benzyloxy-6-trifluoromethyl-pyridin-3-yl)-N-(3-fluoro-4-methanesulfonylamino-benzyl)-acrylamide] as the compound, how does the IC50 read?
Its IC50 is 1400 nM.

How did the IC50 turn out when `C#Cc1cc(CNC(=O)/C=C/c2ccc(C(F)(F)F)nc2Nc2ccccc2)cc(F)c1NS(C)(=O)=O` [Example 113, N-(3-Ethynyl-5-fluoro-4-methanesulfonylamino-benzyl)-3-(2-phenylamino-6-trifluoromethyl-pyridin-3-yl)-acrylamide] was run?
The IC50 was 270 nM.

For `C#Cc1cc(CNC(=O)/C=C/c2ccc(C(F)(F)F)nc2N2CCCC(C(=O)OCC)C2)cc(F)c1NS(C)(=O)=O` (stereo not drawn) [Example 114, N-(3-Ethynyl-5-fluoro-4-methansulfonylamino-benzyl)-3-[2-(3-ethoxycarbonyl-piperid-1-yl)-6-trifluoromethyl-pyridin-3-yl]-acrylamide], which IC50 is on record?
Its IC50 is 430 nM.

With `CCOC(=O)C1CCCN(c2nc(C(F)(F)F)ccc2/C=C/C(=O)NCc2cc(F)c(NS(C)(=O)=O)c(C#N)c2)C1` (stereo not drawn) [Example 115, N-(3-Cyano-5-fluoro-4-methansulfonylamino-benzyl)-3-[2-(3-ethoxycarbonyl-piperid-1-yl)-6-trifluoromethyl-pyridin-3-yl]-acrylamide] as the compound, how does the IC50 read?
Its IC50 is 470 nM.

For `C#Cc1cc(CNC(=O)/C=C/c2ccc(C(F)(F)F)nc2N2CCNCC2)cc(F)c1NS(C)(=O)=O` [Example 116, N-(3-Ethynyl-5-fluoro-4-methanesulfonylamino-benzyl)-3-(2-piperaz-1-yl-6-trifluoromethyl-pyridin-3-yl)-acrylamide, HCl salt], which IC50 is on record?
Its IC50 is 4500 nM.

Which IC50 does the source give for `C#Cc1cc(CNC(=O)/C=C/c2ccc(C(F)(F)F)nc2NC(C)CC)cc(F)c1NS(C)(=O)=O` (stereo not drawn) [Example 117, 3-(2-sec-Butylamino-6-trifluoromethyl-pyridin-3-yl)-N-(3-ethynyl-5-fluoro-4-methanesulfonylamino-benzyl)-acrylamide] here?
Its IC50 is 77 nM.

How did the IC50 turn out when `CC(C)CCOc1nc(C(F)(F)F)ccc1/C=C/C(=O)NCc1cc(F)c(NS(C)(=O)=O)c(C#N)c1` [Example 118, N-(3-Cyano-5-fluoro-4-methanesulfonylamino-benzyl)-3-[2-(3-methyl-butoxy)-6-trifluoromethyl-pyridin-3-yl]-acrylamide] was run?
The IC50 was 200 nM.

For `C#Cc1cc(CNC(=O)/C=C/c2ccc(C(F)(F)F)nc2-c2ccsc2)cc(F)c1NS(C)(=O)=O` [Example 119, N-(3-Ethynyl-5-fluoro-4-methanesulfonylamino-benzyl)-3-(2-thien-3-yl-6-trifluoromethyl-pyridin-3-yl)-acrylamide], which IC50 is on record?
Its IC50 is 270 nM.

For `C#Cc1cc(CNC(=O)/C=C/c2ccc(C(F)(F)F)nc2-c2cccc(F)c2)cc(F)c1NS(C)(=O)=O` [Example 120, N-(3-Ethynyl-5-fluoro-4-methanesulfonylamino-benzyl)-3-[2-(3-fluoro-phenyl)-6-trifluoromethyl-pyridin-3-yl]-acrylamide], which IC50 is on record?
The IC50 was 310 nM.
